In test [1] the test system is pulmonary hemorrhage under reduced pressure. Put plainly: Vascular stabilization: pulmonary hemorrhage in mice under reduced pressure (Table 6; vascular stability summary table). To be noted: for ED50: Mus musculus, iv, read-out: Vascular stability ED50; for ED50 (pulmonary hemorrhage): reduced pressure 50±0.5 mm Hg/15 sec. The test is classed as in vivo. How it is done:
For example, the following tables summarize the vascular stabilizing effect (described in detail below).
The surprising vascular stabilizing effect of these compounds can also be shown in a number of recognized models of which the following are typical.
The degree of pulmonary homorrhage in mice under reduced pressure of 50±0.5 mm Hg/15 sec was assessed by the scoring method, the ED50 of each compound being calculated from the ratio of inhibiting rate for treated animals over that for the control group according to the method of G. J. Mojovski et al., J. Pharmacol. Exp. Therap. 80, 1, 1944.

Test [2] relates to increased vascular permeability induced by lecithinase A. Put plainly: Increased vascular permeability induced by lecithinase A. The test is classed as in vivo, rabbits. The conditions noted are these: 100 mg/kg, i.p. How it is done: (§1) The inhibitory effect on increased vascular permeability caused by intracutaneous administration of histamine, hyaluronidase, lecithinase A and formalin is also correlated to vascular stabilization. This parameter was measured by the dye leakage method with the inhibitory effect of each test drug expressed in terms of inhibiting rate over the control according to the methods of Benditt et al., Proc. Soc. Biol. Med. 75 782 1950 and Orary et al., J. Exp. Med. 117, 951, 1963.

Test [3] concerns bleeding from punctured ear vein. Put plainly: Inhibitory effect on bleeding from ear vein (Duke). The class given is in vivo, rabbits. To be noted: 10 mg/kg i.v., 3 hours after administration. The text has this:
The hemostatic effect can also be observed by measuring the inhibitory effect on bleeding from ear vein in rabbits.

Test [4] has as its system gastric mucosal hemorrhaging induced by electroshock. Put plainly: Gastric mucosal hemorrhage induced by electroshock (Danno et al.). The test is classed as in vivo, rats.
Test [5] relates to abdominal cutaneous vascular resistance. Put plainly: Abdominal cutaneous vascular resistance, petechia appearance under reduced pressure (Borbely et al.). The class given is in vivo, guinea-pigs. The conditions noted are these: 100 mg/kg, s.c.; reduced pressure 250 to 260 mm Hg. The text has this:
The effect on abdominal cutaneous vascular resistance in guinea-pigs can also be used as a model of vascular stabilization. The time of appearance of petechia in abdominal skin of guinea-pigs under reduced pressure of 250 to 260 mm Hg is used as the index, with the petechia appearance delaying effect of each test compound in comparison with the control being determined according to the method of V. Borbely et al., Munch.

Test [6] concerns increased vascular permeability caused by histamine. Put plainly: Increased vascular permeability caused by histamine, rat. The test is classed as in vivo. The conditions noted are these: 100 mg/kg, i.p. How it is done: as §1
In another test the test system is endotoxin shock. Put plainly: Endotoxin shock mortality (48 hours). The test is classed as in vivo. How it is done: The mortality rate during the period of 48 hours following intravenous administration of 80% lethal dose (8 mg/kg) of endotoxin is observed with the effect of each compound being expressed as the ED50 (see Tanabe et al., Pharmacometrics Vol. 7 591, 1973).

The subject of test [7] is increased vascular permeability induced by formalin. Put plainly: Increased vascular permeability induced by formalin. The test is classed as in vivo, rabbits. The conditions noted are these: 100 mg/kg, i.p. Here is the method: as §1
For test [8], the system named is increased vascular permeability induced by hyaluronidase. Put plainly: Increased vascular permeability induced by hyaluronidase, rat. The conditions noted are these: 100 mg/kg, i.p. The test is classed as in vivo. How it is done: as §1
The subject of the next test is Arthus reaction. The experiment in a line: Arthus reaction, increased vascular permeability (Benacerral et al.). The test is classed as in vivo, guinea-pigs. The conditions noted are these: 100 mg/kg, i.p.; 5 hours after provocation. How it is done:
Increased vascular permeability five hours after provocation of reaction is measured as the leakage of hemoglobin according to the method of Benacerral et al., J. Immunol.

Test [9] deals with passive systemic anaphylaxis. Put plainly: Passive systemic anaphylaxis lethality (Munoz et al.). The test is classed as in vivo, guinea-pigs. How it is done: The preventive effect against passive systemic anaphylaxis was determined according to the method of Munoz et al., J. Immunol., 80, 77 (1958). An antigen of 80% lethal dose is intravenously administered to antiserum-sensitized guinea-pigs, and the resultant passive systemic anaphylaxis lethality is expressed as the inhibition rate as compared with the control group.

Test [10] has as its system local hemorrhage induced by snake venom (Naja Naja cobra). The experiment in a line: Local hemorrhage induced by snake venom. The test is classed as in vivo, rats. How it is done:
The inhibitory effect of SG and SGP on local hemorrhage induced by abdominal intracutaneous administration of snake venom (Naja Naja cobra) in rats was determined in terms of inhibiting rate against untreated control rats.

In test [11] the test system is increased vascular permeability induced by hyaluronidase. Put plainly: Increased vascular permeability induced by hyaluronidase, rabbit. To be noted: 100 mg/kg, i.p. The test is classed as in vivo. Here is the method: as §1
The test system of test [12] is bleeding from amputated tail tip. The experiment in a line: Hemostatic effect, bleeding from amputated tail tip (Motohashi et al.). The test is classed as in vivo, mice.
Test [13] concerns hemorrhages induced by vesical mucosal resection. Put plainly: Hemorrhage induced by vesical mucosal resection (Dermaut et al.). The class given is in vivo, dogs. To be noted: 5 mg/kg i.v.
Test [14] deals with increased vascular permeability caused by histamine. The experiment in a line: Increased vascular permeability caused by histamine, rabbit. The test is classed as in vivo. The conditions noted are these: 100 mg/kg, i.p. Here is the method:
as §1

As a reminder, the ED50 is the dose at which the effect has come halfway, by size or by number of responders. Usually % Inhibition stands for the drop in the measured response relative to a control, in per cent.

Each structure is given as a SMILES string. Like-named read-outs stand apart in the source and are kept apart here.

For `CC[C@H](/C=C/[C@@H](C)[C@H]1CC[C@H]2[C@@H]3CC=C4C[C@@H](O[C@@H]5O[C@H](CO)[C@@H](O)[C@H](O)[C@H]5O)CC[C@]4(C)[C@H]3CC[C@]12C)C(C)C` [Stigmasteryl-β-D-glucoside], in test [1] (summary table by compound), the 50% effective dose (ED50) was 2.33 mg/kg.

For the molecule `CC(C)[C@H](C)CC[C@@H](C)[C@H]1CC[C@H]2[C@@H]3CC=C4C[C@@H](O[C@@H]5O[C@H](CO)[C@@H](O)[C@H](O)[C@H]5O)CC[C@]4(C)[C@H]3CC[C@]12C` [Campesteryl-β-D-glucoside], the ED50 in [1] is 2.4 mg/kg.

Consider `CN1C2=CC(=O)/C(=N\NC(N)=O)C=C2CC1S(=O)(=O)[O-].[Na+]` (centres unmarked) [Carbazochrome sodium sulfonate], for which the “% Inhibition” value in test [2] is 10.8%; in [6] it was 32.7%; in [7] it was 0.4%; in test [8], -4.5%; in test [11], 4.7%; in [14] it was 29.6%. In [3], the “% Reduction (time of bleeding)” value is given as 20.0%. For the same molecule, the “electroshock hemorrhage arresting effect” value in test [4] (dose of 200 mg/kg) was “no noticeable effect”. Besides, the “ED50 (inhibiting gastric mucosal hemorrhage)” value in [4] (s.c., electroshock 100-200 V, 3 times/min., 24 hours) was greater than 200.0 mg/kg. Further, the “Prolongation Rate (test group/control group)” value in test [5] was 1.7. Also, the “effect on endotoxin shock” value with endotoxin shock (doses of less than 200 mg/kg) was “no niticeable effect”. In addition, in the test with endotoxin shock (i.p., endotoxin 80% lethal dose (8 mg/kg) i.v., 48 hours), the “ED50 (endotoxin shock)” value is recorded as greater than 200.0 mg/kg. In addition, the “inhibitory effect against death from endotoxin-shock” value with endotoxin shock (in vivo) is “far inferior in effect to SG and SGP”. Besides, the “% Inhibition (Arthus reaction)” value with Arthus reaction stood at 26.3%. For the same molecule, the “% Inhibition (PSA lethality)” value in [9] (100 mg/kg, i.p., antigen 80% lethal dose i.v.) is 20%. Also, the “effect on passive systemic anaphylaxis” value in [9] (dose of 100 mg/kg) is “only very slight effects”. For the same molecule, the “ED50 (pulmonary hemorrhage)” value is reported as 112.0 mg/kg in test [1] (i.p.), 80.0 mg/kg in test [1] (i.v.) and 400.0 mg/kg in [1] (p.o.). Moreover, the “inhibitory effect against hemorrhagic action of snake venom” value in test [10] (100 mg/kg) is “only slight effects”. In addition, in test [10] (100 mg/kg i.p.), the “% Inhibition (local hemorrhage)” value is given as 9.1%. Moreover, the “ED50 (hemostatic effect)” value in test [12] (i.p.) came out at 5.4 mg/kg; in test [12] (i.v.), 3.6 mg/kg; in [12] (p.o.), 36.0 mg/kg. Also, the “% Inhibition (bleeding)” value in [13] is listed as 39.9%.

Consider `CC[C@H](CC[C@@H](C)[C@H]1CC[C@H]2[C@@H]3CC=C4C[C@@H](O[C@@H]5O[C@H](CO)[C@@H](O)[C@H](O)[C@H]5O)CC[C@]4(C)[C@H]3CC[C@]12C)C(C)C` [β-sitosteryl-β-D-glucoside], for which the ED50 in test [1] (summary table by compound) is 1.48 mg/kg.

With `CC(C)CCC[C@@H](C)[C@H]1CC[C@H]2[C@@H]3CC=C4C[C@@H](O[C@@H]5O[C@H](CO)[C@@H](O)[C@H](O)[C@H]5O)CC[C@]4(C)[C@H]3CC[C@]12C` [Cholesteryl-β-D-glucoside], in test [1] (summary table by compound), the ED50 turned out to be 1.8 mg/kg.

The record behind these values is US4333926A, “Steryl-β-D-glucoside pharmaceutical compositions and use” (Nippon Shinyaku Co., Ltd., priority 1979, dated 1982).
